These results are taken from patent US10323022B2, “Pyrrolidinyl urea, pyrrolidinyl thiourea and pyrrolidinyl guanidine compounds as TrkA kinase inhibitors” (Array BioPharma Inc., priority 2011, dated 2019).

The structures appear in SMILES notation. Where a name gives a salt, the structure may show the parent alone.

This experiment concerns the target TrkA (Homo sapiens (Human), UniProt P04629). The experiment in a line: TrkA Omnia Assay. It counts as biochemical. The note with it: averaged IC50; 20 nM enzyme, 500 μM ATP, 10 μM peptide substrate. Summed up:
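Continuous fluorescent kinase read-out (ex 360 nm, em 485 nm) over 70 min, with initial rates fitted to 4- or 5-parameter logistic curves for IC50. Final conditions: 500 μM ATP, 10 μM Omnia Tyr Peptide #4, 20 nM TrkA, MOPS pH 7.5 buffer with MgCl2 and Triton X-100; enzyme and compound preincubated 10 min at ambient temperature.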

For orientation: IC50 means the concentration that inhibits the measured activity by half.

Chain of TrkA (P04629 33-796): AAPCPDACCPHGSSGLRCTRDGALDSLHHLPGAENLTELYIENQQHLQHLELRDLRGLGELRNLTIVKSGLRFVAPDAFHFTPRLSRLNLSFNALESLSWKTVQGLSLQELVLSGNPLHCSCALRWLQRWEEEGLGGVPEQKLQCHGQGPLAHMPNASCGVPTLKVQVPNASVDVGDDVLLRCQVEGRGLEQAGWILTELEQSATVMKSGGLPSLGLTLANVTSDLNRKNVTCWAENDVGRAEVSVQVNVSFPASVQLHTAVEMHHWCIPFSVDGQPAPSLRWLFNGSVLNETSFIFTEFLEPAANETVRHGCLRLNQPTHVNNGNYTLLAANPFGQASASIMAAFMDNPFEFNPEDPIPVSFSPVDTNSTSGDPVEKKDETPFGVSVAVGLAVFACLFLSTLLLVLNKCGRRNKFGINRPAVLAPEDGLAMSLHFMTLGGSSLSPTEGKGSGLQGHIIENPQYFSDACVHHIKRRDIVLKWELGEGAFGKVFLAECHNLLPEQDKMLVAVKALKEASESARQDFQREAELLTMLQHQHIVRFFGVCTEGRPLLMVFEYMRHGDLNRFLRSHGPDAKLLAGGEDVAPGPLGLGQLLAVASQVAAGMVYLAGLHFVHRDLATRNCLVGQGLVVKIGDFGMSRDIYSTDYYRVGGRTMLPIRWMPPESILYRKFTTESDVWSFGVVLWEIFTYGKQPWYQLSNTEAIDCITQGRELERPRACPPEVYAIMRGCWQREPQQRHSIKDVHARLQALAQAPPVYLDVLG

For `COCCN1C[C@@H](NC(=O)Nc2c(C)c(-c3cn(C)nc3C)nn2-c2ccccc2)[C@H](c2ccc(F)c(F)c2)C1` [Example 508, 1-((3S,4R)-4-(3,4-difluorophenyl)-1-(2-methoxyethyl)pyrrolidin-3-yl)-3-(1′,3′,4-trimethyl-1-phenyl-1H,1′H-[3,4′-bipyrazol]-5-yl)urea], the half-inhibitory concentration (IC50) is less than 100 nM.
Under `COCCN1C[C@@H](NC(=O)Nc2c(C#N)c(C)nn2-c2ccccc2)[C@H](c2ccc(F)c(F)c2)C1` [Example 66, 1-(4-cyano-3-methyl-1-phenyl-1H-pyrazol-5-yl)-3-((3S,4R)-4-(3,4-difluorophenyl)-1-(2-methoxyethyl)pyrrolidin-3-yl)urea] stands less than 100 nM.
The value for `CCOc1nn(-c2ccccc2)c(NC(=O)N[C@@H]2CN(c3ccccc3C)C[C@H]2c2ccccc2)c1C` [Example 236, 1-(3-ethoxy-4-methyl-1-phenyl-1H-pyrazol-5-yl)-3-((3S,4R)-1-(2-methylphenyl)-4-phenylpyrrolidin-3-yl)urea] was 100 to 1000 nM; that for `COCCN1C[C@@H](NC(=O)Nc2c(C)c(-c3cnn(C)c3)nn2-c2ccccc2)[C@H](c2ccncc2F)C1` [Example 346, 1-(1′,4-dimethyl-1-phenyl-1H,1′H-[3,4′-bipyrazol]-5-yl)-3-((3S,4R)-4-(3-fluoropyridin-4-yl)-1-(2-methoxyethyl)pyrrolidin-3-yl)urea] was less than 100 nM.
Under `COCCN1C[C@@H](NC(=O)Nc2c(C)c(-c3ccn(C)c(=O)c3)nn2-c2ccccc2)[C@H](c2ccc(Cl)c(F)c2)C1` (relative stereo) [Example 303, 1-(trans-4-(4-chloro-3-fluorophenyl)-1-(2-methoxyethyl)pyrrolidin-3-yl)-3-(4-methyl-3-(1-methyl-2-oxo-1,2-dihydropyridin-4-yl)-1-phenyl-1H-pyrazol-5-yl)urea] stands less than 100 nM; under `COCCN1C[C@@H](NC(=O)Nc2c(C)c(-c3cnn(C)c3)nn2-c2cccc(F)c2)[C@H](c2ccc(F)c(F)c2)C1` [Example 313, 1-((3S,4R)-4-(3,4-difluorophenyl)-1-(2-methoxyethyl)pyrrolidin-3-yl)-3-(1-(3-fluorophenyl)-1′,4-dimethyl-1H,1′H-[3,4′-bipyrazol]-5-yl)urea], less than 100 nM; under `Cn1nc(-c2ccccc2)cc1NC(=O)N[C@@H]1CN(CC(F)(F)F)C[C@H]1c1cccc(F)c1` [Example 203, 1-((3S,4R)-4-(3-fluorophenyl)-1-(2,2,2-trifluoroethyl)pyrrolidin-3-yl)-3-(1-methyl-3-phenyl-H-pyrazol-5-yl)urea], 100 to 1000 nM.
Turning to `O=C(Nc1c2c(nn1-c1ccccc1)CCC2)N[C@@H]1CN(CC(F)(F)F)C[C@H]1c1ccccc1F` (relative stereo) [Example 214, 1-((trans)-4-(2-fluorophenyl)-1-(2,2,2-trifluoroethyl)pyrrolidin-3-yl)-3-(2-phenyl-2,4,5,6-tetrahydrocyclopenta[c]pyrazol-3-yl)urea], the IC50 was less than 100 nM.
The value for `COCCN1C[C@@H](NC(=O)Nc2cn(-c3ccccc3)nc2C(F)(F)F)[C@H](c2ccc(F)c(F)c2)C1` [Example 649, 1-((3S,4R)-4-(3,4-difluorophenyvl)-1-(2-methoxyethyl)pyrrolidin-3-yl)-3-(1-phenyl-3-(trifluoromethyl)-1H-pyrazol-4-yl)urea] was 100 to 1000 nM; that for `COCCN1C[C@@H](NC(=O)Nc2cc(-c3cnn(C)c3)nn2-c2ccccc2)[C@H](c2ccc(F)c(F)c2)C1` [Example 73, 1-((3S,4R)-4-(3,4-difluorophenyl)-1-(2-methoxyethyl)pyrrolidin-3-yl)-3-(1′-methyl-1-phenyl-1H,1′H-3,4′-bipyrazol-5-yl)urea] was less than 100 nM.
Under `CCOc1nn(-c2ccccc2)c(NC(=O)N[C@@H]2CN(c3ccnn3C)C[C@H]2c2cc(F)cc(F)c2)c1C` [Example 230, 1-((3S,4R)-4-(3,5-difluorophenyl)-1-(1-methyl-1H-pyrazol-5-yl)pyrrolidin-3-yl)-3-(3-ethoxy-4-methyl-1-phenyl-1H-pyrazol-5-yl)urea] stands 100 to 1000 nM; under `COCCN1C[C@@H](NC(=O)Nc2cc(C(C)(C)C)nn2-c2cccnc2)[C@H](c2ccccc2)C1` (relative stereo) [Example 7, 1-(3-tert-butyl-1-(pyridin-3-yl)-1H-pyrazol-5-yl)-3-(trans-1-(2-methoxyethyl)-4-phenylpyrrolidin-3-yl) urea], 1000 to 10000 nM; under `COCCN1C[C@@H](NC(=O)Nc2cc(C3CCCC3)nn2-c2ccccc2)[C@H](c2ccccc2)C1` (relative stereo) [Example 24, 1-(3-cyclopentyl-1-phenyl-1H-pyrazol-5-yl)-3-(trans-1-(2-methoxyethyl)-4-phenylpyrrolidin-3-yl)urea], less than 100 nM.
Under `COCCN1C[C@@H](NC(=O)Nc2c(C)c(OC(=O)N3CCOCC3)nn2-c2ccccc2)[C@H](c2ccc(F)c(F)c2)C1` [Example 397, 5-(3-((3S,4R)-4-(3,4-difluorophenyl)-1-(2-methoxyethyl)pyrrolidin-3-yl)ureido)-4-methyl-1-phenyl-1H-pyrazol-3-yl morpholine-4-carboxylate] stands less than 100 nM.
For the compound `CCOc1nn(-c2ccccc2)c(NC(=O)N[C@@H]2CN(CCOC)C[C@H]2c2cccc(C(F)(F)F)c2)c1C` (relative stereo) [Example 335, 1-(3-ethoxy-4-methyl-1-phenyl-1H-pyrazol-5-yl)-3-(trans-1-(2-methoxyethyl)-4-(3-(trifluoromethyl)phenyl)pyrrolidin-3-yl)urea], the IC50 was less than 100 nM.
Under `COCC(N1C[C@@H](NC(=O)Nc2c3c(nn2-c2ccccc2)CCC3)[C@H](c2ccc(F)c(F)c2)C1)C(C)(C)O` (stereo partly drawn) [Example 261, 1-((3S,4R)-4-(3,4-difluorophenyl)-1-(3-hydroxy-1-methoxy-3-methylbutan-2-yl)pyrrolidin-3-yl)-3-(2-phenyl-2,4,5,6-tetrahydrocyclopenta[c]pyrazol-3-yl)urea] stands 100 to 1000 nM; under `COCCN1C[C@@H](NC(=O)Nc2c(C)c(-c3cnc(OC)nc3)nn2-c2ccccc2)[C@H](c2ccc(F)cc2)C1` [Example 528, 1-((3S,4R)-4-(4-fluorophenyl)-1-(2-methoxyethyl)pyrrolidin-3-yl)-3-(3-(2-methoxypyrimidin-5-yl)-4-methyl-1-phenyl-1H-pyrazol-5-yl)urea], less than 100 nM; under `COc1cccc([C@@H]2CN(CC(F)(F)F)C[C@H]2NC(=O)Nc2c3c(nn2-c2ccccc2)CCC3)c1` (relative stereo) [Example 207, 1-((trans)-4-(3-methoxyphenyl)-1-(2,2,2-trifluoroethyl)pyrrolidin-3-yl)-3-(2-phenyl-2,4,5,6-tetrahydrocyclopenta[c]pyrazol-3-yl)urea], 100 to 1000 nM.
In turn, `COCCN1C[C@@H](NC(=O)Nc2c(Cl)c(-c3ccccc3)nn2-c2ccccc2)[C@H](c2ccc(F)c(F)c2)C1` [Example 62, 1-(4-chloro-1,3-diphenyl-1H-pyrazol-5-yl)-3-((3S,4R)-4-(3,4-difluorophenyl)-1-(2-methoxyethyl)pyrrolidin-3-yl)urea] returned an IC50 of less than 100 nM.
The compound `COCCN1C[C@@H](NC(=O)Nc2c(C)c(OC[C@H](C)O)nn2-c2ccccc2)[C@H](c2ccc(F)c(F)c2)C1` [Example 179, 1-((3S,4R)-4-(3,4-difluorophenyl)-1-(2-methoxyethyl)pyrrolidin-3-yl)-3-(3-((S)-2-hydroxypropoxy)-4-methyl-1-phenyl-1H-pyrazol-5-yl)urea hydrochloride] registered an IC50 of less than 100 nM.
